The target in test [1] is T1, Growth factor receptor-bound protein 2 (Homo sapiens, UniProt P62993). In words: Inhibition of Growth factor receptor bound protein 2 SH2 domain in extracellular binding assay.
Target sequence in this assay (P62993 whole entry, the tested form may be a part): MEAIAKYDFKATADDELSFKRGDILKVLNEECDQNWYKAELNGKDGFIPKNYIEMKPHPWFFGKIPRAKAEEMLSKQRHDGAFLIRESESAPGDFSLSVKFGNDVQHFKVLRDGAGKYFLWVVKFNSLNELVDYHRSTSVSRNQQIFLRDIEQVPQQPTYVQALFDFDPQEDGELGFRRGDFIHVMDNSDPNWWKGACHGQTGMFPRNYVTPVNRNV
The target of test [2] is T1, Growth factor receptor-bound protein 2. In words: Inhibition of growth factor receptor-bound protein 2 SH2 domain binding to erbB-2 in cell-based assay (Not significant).
Target sequence in this assay (P62993 whole entry, looked up, the tested form may be a part): as the sequence (P62993 whole entry, the tested form may be a part) above
Test [3] has as its system MDA-MB-453. The experiment in a line: Inhibition of MDA-MB-453 breast cancer cell proliferation (No inhibition). The class given is functional, cell-based. Conditions: Homo sapiens.

The source made the active and inactive calls. No cut-off for these calls is given here.

`NC(=O)C[C@@H]1NC(=O)C2(CCCCC2)NC(=O)C[C@@H](c2ccc(CP(=O)(O)O)cc2)NC(=O)C[C@@H](Cc2cccc3ccccc23)CNC1=O` yielded an IC50 in test [1] of 7.9 µM. Further, in test [2], the NS entry is “inactive”. Besides, the NI entry in test [3] was “inactive”.

As for `NC(=O)C[C@@H]1NC(=O)C2(CCCCC2)NC(=O)C[C@@H](c2ccc(CP(=O)(O)O)cc2)/C=C/C[C@@H](Cc2cccc3ccccc23)CNC1=O`, in test [1], the IC50 was 0.026 µM. The NS result in test [2] was “inactive”. Besides, in test [3], the NI entry is “inactive”.

In turn, `NC(=O)C[C@H](NC(=O)C1(NC(=O)CCc2ccc(CP(=O)(O)O)cc2)CCCCC1)C(N)=O` showed an IC50 in test [1] of 52.5 µM.

Compound `NC(=O)C[C@@H]1NC(=O)C2(CCCCC2)NC(=O)C[C@@H](c2ccc(CP(=O)(O)O)cc2)NC(=O)CCNC1=O` had an IC50 in test [1] above 600 µM.

`NC(=O)C[C@@H]1NC(=O)C2(CCCCC2)NC(=O)C[C@@H](c2ccc(CP(=O)(O)O)cc2)NC(=O)CCCNC1=O`: in test [1], the IC50 was found to be 47.9 µM.

For the compound `NC(=O)C[C@@H]1NC(=O)C2(CCCCC2)NC(=O)C[C@@H](c2ccc(CP(=O)(O)O)cc2)NC(=O)CNC1=O`, the half-inhibitory concentration (IC50) in test [1] was above 600 µM.

The values are drawn from ChEMBL document CHEMBL1145805, “Utilization of a beta-aminophosphotyrosyl mimetic in the design and synthesis of macrocyclic Grb2 SH2 domain-binding peptides” (J Med Chem, 2003).
